According to PubChem BioAssay AID328 (DTP/NCI, 2004):
“And” between values parts separate entries of the source, which are not always exact repeats. Equal values may be shown once. Toxic doses and inconclusive results are not listed.

Tested on: BDF1 mice, P388 leukemia ip, median survival T/C
Experiment: NCI In Vivo Anticancer Drug Screen. Data for tumor model P388 Leukemia (intraperitoneal) in B6D2F1 (BDF1) mice
Conditions: endpoint: median survival time, higher = longer survival
Procedure, shortened: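 Mice carrying the transplantable tumour receive compound or vehicle. Survival is followed in each arm, and the treated measure is divided by the vehicle measure.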

[1] = dose: 100.0 mg/kg/injection, schedule: Q01DX009 (ip), vehicle: saline with Tween-80
[2] = dose: 100.0 mg/kg/injection, schedule: Q04DX003 (ip), vehicle: saline
[3] = dose: 200.0 mg/kg/injection, schedule: Q01DX009 (ip), vehicle: saline with Tween-80
[4] = dose: 200.0 mg/kg/injection, schedule: Q04DX003 (ip), vehicle: saline
[5] = dose: 400.0 mg/kg/injection, schedule: Q01DX009 (ip), vehicle: saline with Tween-80
[6] = dose: 400.0 mg/kg/injection, schedule: Q04DX003 (ip), vehicle: saline
[7] = dose: 25.0 mg/kg/injection, schedule: Q01DX009 (ip), vehicle: saline with Tween-80
[8] = dose: 50.0 mg/kg/injection, schedule: Q01DX009 (ip), vehicle: saline with Tween-80
[9] = dose: 100.0 mg/kg/injection, schedule: Q04DX003 (ip), vehicle: Klucel (hydroxypropylcellulose) (HPC)

What does the source list for `CC1CCC(NC(=O)N(CCCl)N=O)CC1` (stereo not drawn)?
T/C (dose: 0.66 mg/kg/injection, schedule: Q01DX009 (ip), vehicle: Klucel (hydroxypropylcellulose) (HPC)): 97 % of control; T/C (dose: 0.99 mg/kg/injection, schedule: Q01DX009 (ip), vehicle: Klucel (hydroxypropylcellulose) (HPC)): 107 % of control; T/C (dose: 1.5 mg/kg/injection, schedule: Q01DX009 (ip), vehicle: Klucel (hydroxypropylcellulose) (HPC)): 177 % of control; T/C (dose: 3.1 mg/kg/injection, schedule: Q04DX003 (ip), vehicle: Klucel (hydroxypropylcellulose) (HPC)): 154 % of control; T/C (dose: 3.6 mg/kg/injection, schedule: Q01DX009 (ip), vehicle: Klucel (hydroxypropylcellulose) (HPC)): 180 % of control; T/C (dose: 4.7 mg/kg/injection, schedule: Q04DX003 (ip), vehicle: Klucel (hydroxypropylcellulose) (HPC)): 172 % of control; T/C (dose: 5.0 mg/kg/injection, schedule: Q04DX002 (ip), vehicle: other): 168 % of control; T/C (dose: 7.2 mg/kg/injection, schedule: Q04DX003 (ip), vehicle: saline): 190 % of control; T/C (dose: 8.3 mg/kg/injection, schedule: Q01DX009 (ip), vehicle: Klucel (hydroxypropylcellulose) (HPC)): 250 % of control; T/C (dose: 9.4 mg/kg/injection, schedule: Q04DX003 (ip), vehicle: saline with Tween-80): 113 % of control; T/C (dose: 10.0 mg/kg/injection, schedule: Q01DX001 (ip), vehicle: alcohol): 119 % of control; T/C (dose: 10.0 mg/kg/injection, schedule: Q04DX002 (ip), vehicle: other): 194 % of control; T/C (dose: 10.0 mg/kg/injection, schedule: Q04DX003 (ip), vehicle: saline with Tween-80): 209 % of control; T/C (dose: 10.0 mg/kg/injection, schedule: Q04DX003 (ip), vehicle: saline): 225 % of control; T/C (dose: 11.0 mg/kg/injection, schedule: Q04DX003 (ip), vehicle: saline with Tween-80): 272 % of control; T/C (dose: 12.5 mg/kg/injection, schedule: Q01DX009 (ip), vehicle: Klucel (hydroxypropylcellulose) (HPC)): 300 % of control and 120 % of control; T/C (dose: 15.0 mg/kg/injection, schedule: Q04DX003 (ip), vehicle: saline with Tween-80): 241 % of control and 322 % of control and 212 % of control; T/C (dose: 16.0 mg/kg/injection, schedule: Q01DX001 (ip), vehicle: saline with Tween-80): 322 % of control; T/C (dose: 16.0 mg/kg/injection, schedule: Q04DX003 (ip), vehicle: saline with Tween-80): 545 % of control; T/C (dose: 16.5 mg/kg/injection, schedule: Q04DX003 (ip), vehicle: saline): 272 % of control; T/C (dose: 18.0 mg/kg/injection, schedule: Q01DX009 (ip), vehicle: Klucel (hydroxypropylcellulose) (HPC)): 110 % of control; T/C (dose: 18.75 mg/kg/injection, schedule: Q01DX009 (ip), vehicle: Klucel (hydroxypropylcellulose) (HPC)): 100 % of control; T/C (dose: 20.0 mg/kg/injection, schedule: Q04DX002 (ip), vehicle: other): 247 % of control; T/C (dose: 20.0 mg/kg/injection, schedule: Q04DX003 (ip), vehicle: saline with Tween-80): 258 % of control and 294 % of control and 482 % of control; T/C (dose: 24.0 mg/kg/injection, schedule: Q04DX003 (ip), vehicle: saline with Tween-80): 545 % of control; T/C (dose: 25.0 mg/kg/injection, schedule: Q01DX009 (ip), vehicle: Klucel (hydroxypropylcellulose) (HPC)): 115 % of control; T/C (dose: 25.0 mg/kg/injection, schedule: Q04DX003 (ip), vehicle: alcohol): 300 % of control; T/C (dose: 25.0 mg/kg/injection, schedule: Q04DX003 (ip), vehicle: saline): 240 % of control and 272 % of control; T/C (dose: 30.0 mg/kg/injection, schedule: Q04DX003 (ip), vehicle: saline with Tween-80): 446 % of control; T/C (dose: 37.5 mg/kg/injection, schedule: Q04DX003 (ip), vehicle: saline): 90 % of control and 218 % of control; T/C (dose: 40.0 mg/kg/injection, schedule: Q04DX002 (ip), vehicle: other): 117 % of control; T/C (dose: 50.0 mg/kg/injection, schedule: Q04DX003 (ip), vehicle: alcohol): 115 % of control; T/C (dose: 54.0 mg/kg/injection, schedule: Q01DX001 (ip), vehicle: saline with Tween-80): 499 % of control

With `C#CC1(OCC2CN(c3ccccc3)C(=O)O2)CCCCC1` (stereo not drawn) as the compound, how does the T/C [1] read?
The T/C was 90 % of control.

And the T/C [2]?
Its T/C is 100 % of control.

And the T/C [3]?
The T/C was 100 % of control.

What about the T/C [4] of the same compound?
The T/C was 100 % of control.

What about the T/C [5] of the same compound?
Its T/C is 109 % of control.

What about the T/C [6] of the same compound?
The T/C was 100 % of control.

What does the source list for `O=C(CNC(=O)Nc1ccc(C2=NCCN2)cc1)Nc1ccc(C2=NCCN2)cc1`?
T/C (dose: 12.5 mg/kg/injection, schedule: Q01DX009 (ip), vehicle: saline with Tween-80): 104 % of control; T/C (dose: 12.5 mg/kg/injection, schedule: Q04DX003 (ip), vehicle: saline with Tween-80): 100 % of control; T/C (dose: 22.0 mg/kg/injection, schedule: Q01DX009 (ip), vehicle: saline with Tween-80): 100 % of control; T/C [7]: 120 % of control; T/C (dose: 25.0 mg/kg/injection, schedule: Q04DX003 (ip), vehicle: saline with Tween-80): 118 % of control; T/C (dose: 33.0 mg/kg/injection, schedule: Q01DX009 (ip), vehicle: saline with Tween-80): 114 % of control; T/C [8]: 166 % of control; T/C (dose: 50.0 mg/kg/injection, schedule: Q04DX003 (ip), vehicle: saline with Tween-80): 109 % of control; T/C (dose: 75.0 mg/kg/injection, schedule: Q01DX009 (ip), vehicle: saline with Tween-80): 153 % of control

What does the source list for `Cc1ccc(C)c(CN(C)C)c1O`?
T/C (dose: 25.0 mg/kg/injection, schedule: Q04DX003 (ip), vehicle: Klucel (hydroxypropylcellulose) (HPC)): 118 % of control; T/C (dose: 50.0 mg/kg/injection, schedule: Q04DX003 (ip), vehicle: Klucel (hydroxypropylcellulose) (HPC)): 100 % of control; T/C [9]: 100 % of control

For `CC(C)CC1NC(=O)C(Cc2ccc(OCc3ccccc3)cc2)NC1=O` (stereo not drawn), which T/C (dose: 40.0 mg/kg/injection, schedule: Q04DX003 (ip), vehicle: saline with Tween-80) is on record?
The T/C was 95 % of control.

And the T/C [8]?
The T/C was 101 % of control.

And the T/C (dose: 66.0 mg/kg/injection, schedule: Q04DX003 (ip), vehicle: saline with Tween-80)?
Its T/C is 91 % of control.

What about the T/C [1] of the same compound?
Its T/C is 95 % of control.

And the T/C (dose: 100.0 mg/kg/injection, schedule: Q04DX003 (ip), vehicle: saline with Tween-80)?
The T/C was 87 % of control.

What about the T/C (dose: 166.0 mg/kg/injection, schedule: Q04DX003 (ip), vehicle: saline with Tween-80) of the same compound?
Its T/C is 95 % of control.

And the T/C [3]?
Its T/C is 93 % of control.

What about the T/C (dose: 200.0 mg/kg/injection, schedule: Q04DX003 (ip), vehicle: saline with Tween-80) of the same compound?
Its T/C is 111 % of control.

And the T/C (dose: 276.0 mg/kg/injection, schedule: Q04DX003 (ip), vehicle: saline with Tween-80)?
The T/C was 91 % of control.

And the T/C [5]?
Its T/C is 96 % of control.

What about the T/C (dose: 400.0 mg/kg/injection, schedule: Q04DX003 (ip), vehicle: saline with Tween-80) of the same compound?
The T/C was 111 % of control.

For `O=C(O)C(Cc1ccc(O)cc1)c1ccccc1` (stereo not drawn), which T/C (dose: 100.0 mg/kg/injection, schedule: Q01DX009 (ip), vehicle: Klucel (hydroxypropylcellulose) (HPC)) is on record?
The T/C was 86 % of control.

What about the T/C [9] of the same compound?
Its T/C is 90 % of control.

And the T/C (dose: 200.0 mg/kg/injection, schedule: Q01DX009 (ip), vehicle: Klucel (hydroxypropylcellulose) (HPC))?
The T/C was 95 % of control.

And the T/C (dose: 200.0 mg/kg/injection, schedule: Q04DX003 (ip), vehicle: Klucel (hydroxypropylcellulose) (HPC))?
The T/C was 90 % of control.

What about the T/C (dose: 400.0 mg/kg/injection, schedule: Q01DX009 (ip), vehicle: Klucel (hydroxypropylcellulose) (HPC)) of the same compound?
Its T/C is 109 % of control.

What about the T/C (dose: 400.0 mg/kg/injection, schedule: Q04DX003 (ip), vehicle: Klucel (hydroxypropylcellulose) (HPC)) of the same compound?
Its T/C is 95 % of control.

Which results are given for `COc1cccc2c1C(=O)c1c(O)c3c(c(O)c1C2=O)C[C@@](O)(/C(C)=N/NC(=O)c1ccc(N(C)C)cc1)C[C@@H]3OC1CC(N)C(O)C(C)O1` (stereo partly drawn)?
T/C (dose: 0.25 mg/kg/injection, schedule: Q01DX009 (ip), vehicle: water): 96 % of control; T/C (dose: 1.0 mg/kg/injection, schedule: Q01DX009 (ip), vehicle: water): 107 % of control and 110 % of control; T/C (dose: 2.0 mg/kg/injection, schedule: Q01DX009 (ip), vehicle: water): 233 % of control and 154 % of control; T/C (dose: 4.0 mg/kg/injection, schedule: Q01DX009 (ip), vehicle: water): 179 % of control; T/C (dose: 8.0 mg/kg/injection, schedule: Q01DX009 (ip), vehicle: water): 243 % of control

For `NC(=S)NN1C2CSC1CS2`, which T/C (dose: 22.5 mg/kg/injection, schedule: Q01DX009 (ip), vehicle: saline with Tween-80) is on record?
Its T/C is 100 % of control.

What about the T/C (dose: 45.0 mg/kg/injection, schedule: Q01DX009 (ip), vehicle: saline with Tween-80) of the same compound?
Its T/C is 110 % of control.

What about the T/C (dose: 90.0 mg/kg/injection, schedule: Q01DX009 (ip), vehicle: saline with Tween-80) of the same compound?
The T/C was 108 % of control.

With `O=[N+]([O-])c1cc([N+](=O)[O-])c2ccccc2c1NS(=O)(=O)/C=C/c1ccccc1` as the compound, how does the T/C [7] read?
The T/C was 104 % of control.

What about the T/C [8] of the same compound?
Its T/C is 112 % of control.

And the T/C [1]?
The T/C was 111 % of control.

With `O=C(CSc1ccccc1)NCc1cnccn1` as the compound, how does the T/C (dose: 50.0 mg/kg/injection, schedule: Q04DX003 (ip), vehicle: saline) read?
Its T/C is 108 % of control.

What about the T/C [2] of the same compound?
Its T/C is 92 % of control.

What about the T/C [4] of the same compound?
The T/C was 104 % of control.

What about the T/C [6] of the same compound?
The T/C was 100 % of control.
